Results published in PubChem BioAssay AID330 (DTP/NCI, 2004).
Several values for one entry are separate records, joined by “and”; a condition that tells them apart may be missing. Identical values can stand only once. Toxic doses and inconclusive results are not listed.

Tested on: P388 leukemia ip, CD2F1 mice, survival T/C
Assay: NCI In Vivo Anticancer Drug Screen. Data for tumor model P388 Leukemia (intraperitoneal) in CD2F1 (CDF1) mice
Conditions: endpoint: median survival time, higher = longer survival
Summary of the method: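 Mice carrying the transplanted tumor received test compound or vehicle. Survival was recorded in each group, and the value is the treated-group measurement divided by that of the vehicle-treated control group.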

[1] = dose: 50.0 mg/kg/injection, schedule: Q01DX005 (ip), vehicle: saline with Tween-80
[2] = dose: 100.0 mg/kg/injection, schedule: Q01DX005 (ip), vehicle: saline with Tween-80
[3] = dose: 200.0 mg/kg/injection, schedule: Q01DX005 (ip), vehicle: saline with Tween-80
[4] = dose: 60.0 mg/kg/injection, schedule: Q01DX005 (ip), vehicle: saline with Tween-80
[5] = dose: 120.0 mg/kg/injection, schedule: Q01DX005 (ip), vehicle: saline with Tween-80
[6] = dose: 240.0 mg/kg/injection, schedule: Q01DX005 (ip), vehicle: saline with Tween-80
[7] = dose: 12.5 mg/kg/injection, schedule: Q01DX005 (ip), vehicle: saline with Tween-80
[8] = dose: 25.0 mg/kg/injection, schedule: Q01DX005 (ip), vehicle: saline with Tween-80
[9] = dose: 50.0 mg/kg/injection, schedule: Q01DX009 (ip), vehicle: saline with Tween-80
[10] = dose: 100.0 mg/kg/injection, schedule: Q01DX009 (ip), vehicle: saline with Tween-80
[11] = dose: 200.0 mg/kg/injection, schedule: Q01DX009 (ip), vehicle: saline with Tween-80
[12] = dose: 12.5 mg/kg/injection, schedule: Q01DX009 (ip), vehicle: saline
[13] = dose: 25.0 mg/kg/injection, schedule: Q01DX009 (ip), vehicle: saline
[14] = dose: 50.0 mg/kg/injection, schedule: Q01DX009 (ip), vehicle: Klucel (hydroxypropylcellulose) (HPC)
[15] = dose: 50.0 mg/kg/injection, schedule: Q01DX005 (ip), vehicle: Klucel (hydroxypropylcellulose) (HPC)
[16] = dose: 100.0 mg/kg/injection, schedule: Q01DX005 (ip), vehicle: Klucel (hydroxypropylcellulose) (HPC)
[17] = dose: 60.0 mg/kg/injection, schedule: Q01DX005 (ip), vehicle: Klucel (hydroxypropylcellulose) (HPC)
[18] = dose: 120.0 mg/kg/injection, schedule: Q01DX005 (ip), vehicle: Klucel (hydroxypropylcellulose) (HPC)
[19] = dose: 240.0 mg/kg/injection, schedule: Q01DX005 (ip), vehicle: Klucel (hydroxypropylcellulose) (HPC)
[20] = dose: 6.25 mg/kg/injection, schedule: Q01DX005 (ip), vehicle: saline with Tween-80
[21] = dose: 200.0 mg/kg/injection, schedule: Q01DX005 (ip), vehicle: Klucel (hydroxypropylcellulose) (HPC)

Cc1nn(C(N)=S)c(C)c1N=Nc1cc(Cl)ccc1Cl
T/C [1]: 94 % of control
T/C [2]: 86 % of control
T/C [3]: 88 % of control

COC1SCCn2c1nc1ccccc1c2=O (configuration not stated)
T/C [4]: 107 % of control
T/C [5]: 98 % of control
T/C [6]: 99 % of control

O=C(N/N=C/c1ccccc1O)c1ccccc1O
T/C [1]: 100 % of control
T/C [2]: 96 % of control
T/C [3]: 99 % of control

C1=C(c2ccccc2)CC2CCC1N2Cc1ccccc1 (configuration not stated)
T/C [7]: 99 % of control
T/C [8]: 103 % of control
T/C [1]: 101 % of control and 103 % of control

CN(C)c1nc(=[N+](C)C)ss1
T/C [9]: 90 % of control
T/C [10]: 100 % of control
T/C [11]: 113 % of control

COc1ccc(C(=O)c2cc3c(ccc4ccccc43)oc2=O)cc1
T/C (dose: 6.25 mg/kg/injection, schedule: Q01DX009 (ip), vehicle: saline): 98 % of control
T/C [12]: 96 % of control
T/C [13]: 90 % of control

O=C(O)c1cc(-c2c(Cl)cccc2Cl)nc2cc3ccccc3cc12
T/C [14]: 111 % of control
T/C (dose: 100.0 mg/kg/injection, schedule: Q01DX009 (ip), vehicle: Klucel (hydroxypropylcellulose) (HPC)): 106 % of control
T/C (dose: 200.0 mg/kg/injection, schedule: Q01DX009 (ip), vehicle: Klucel (hydroxypropylcellulose) (HPC)): 106 % of control

N=c1nc(N)nc2n1N=C(c1ccc(Cl)cc1)CS2
T/C [8]: 102 % of control
T/C [1]: 92 % of control
T/C [2]: 90 % of control

O=C1O[C@@H]2C3COC(O)[C@](O)(O3)[C@@H]2/C1=C\c1ccc(O)cc1 (some centres not stated)
T/C (dose: 4.0 mg/kg/injection, schedule: Q01DX005 (ip), vehicle: DMSO): 115 % of control
T/C (dose: 8.0 mg/kg/injection, schedule: Q01DX005 (ip), vehicle: DMSO): 109 % of control
T/C (dose: 16.0 mg/kg/injection, schedule: Q01DX005 (ip), vehicle: DMSO): 113 % of control
T/C (dose: 32.0 mg/kg/injection, schedule: Q01DX005 (ip), vehicle: DMSO): 113 % of control

CCOC(=O)CC(SCP(=O)(OCC)OCC)C(=O)OCC (configuration not stated)
T/C [4]: 101 % of control
T/C [5]: 95 % of control
T/C [6]: 93 % of control

C[C@]12CC[C@@H]3c4ccc(O)cc4CC[C@H]3[C@@H]1CC[C@@H]2NCCCCCCO
T/C [15]: 92 % of control
T/C [16]: 97 % of control

Clc1ccccc1OCC1CO1 (configuration not stated)
T/C [10]: 100 % of control
T/C [11]: 109 % of control
T/C (dose: 400.0 mg/kg/injection, schedule: Q01DX009 (ip), vehicle: saline with Tween-80): 109 % of control

CCN(CC)C(C)(C)C(=O)/C=C/c1ccc(Cl)cc1
T/C (dose: 60.0 mg/kg/injection, schedule: Q01DX005 (ip), vehicle: saline): 115 % of control
T/C (dose: 120.0 mg/kg/injection, schedule: Q01DX005 (ip), vehicle: saline): 101 % of control

C[n+]1c2ccccc2c(Oc2c3ccccc3[n+](C)c3ccccc23)c2ccccc21
T/C [17]: 91 % of control
T/C [18]: 93 % of control
T/C [19]: 100 % of control

CCN(CC)CCNc1c(OC)c(OC)cc2nccnc12
T/C (dose: 25.0 mg/kg/injection, schedule: Q01DX005 (ip), vehicle: suspension in saline): 98 % of control
T/C (dose: 50.0 mg/kg/injection, schedule: Q01DX005 (ip), vehicle: suspension in saline): 98 % of control
T/C (dose: 100.0 mg/kg/injection, schedule: Q01DX005 (ip), vehicle: suspension in saline): 98 % of control

Cn1c(=O)c2c(ncn2N)n(C)c1=O
T/C [17]: 111 % of control
T/C [18]: 102 % of control
T/C [19]: 107 % of control

N#CC1(c2ccccc2)OC1(C#N)c1ccccc1 (configuration not stated)
T/C (dose: 12.5 mg/kg/injection, schedule: Q01DX009 (ip), vehicle: saline with Tween-80): 96 % of control
T/C (dose: 25.0 mg/kg/injection, schedule: Q01DX009 (ip), vehicle: saline with Tween-80): 101 % of control
T/C (dose: 37.5 mg/kg/injection, schedule: Q01DX009 (ip), vehicle: acetone): 96 % of control
T/C [9]: 93 % of control
T/C (dose: 75.0 mg/kg/injection, schedule: Q01DX009 (ip), vehicle: acetone): 95 % of control
T/C (dose: 150.0 mg/kg/injection, schedule: Q01DX009 (ip), vehicle: acetone): 113 % of control

O=CC(NC(=O)CCCc1ccc(N(CCCl)CCCl)cc1)C(O)C(O)C(O)CO (configuration not stated)
T/C (dose: 12.5 mg/kg/injection, schedule: Q01DX009 (ip), vehicle: Klucel (hydroxypropylcellulose) (HPC)): 204 % of control and 215 % of control
T/C (dose: 25.0 mg/kg/injection, schedule: Q01DX009 (ip), vehicle: Klucel (hydroxypropylcellulose) (HPC)): 211 % of control and 227 % of control
T/C [14]: 105 % of control and 86 % of control and 89 % of control

O=C(CCN1C(=O)c2ccccc2C1=O)C(O)CCN1C(=O)c2ccccc2C1=O (configuration not stated)
T/C [20]: 98 % of control
T/C [7]: 107 % of control
T/C [8]: 100 % of control
T/C [3]: 87 % of control

CC(=O)OCCC/C(=C\c1c2ccccc2cc2ccccc12)[N+](=O)[O-]
T/C (dose: 60.0 mg/kg/injection, schedule: Q01DX005 (ip), vehicle: suspension in saline): 100 % of control
T/C (dose: 120.0 mg/kg/injection, schedule: Q01DX005 (ip), vehicle: suspension in saline): 102 % of control
T/C (dose: 240.0 mg/kg/injection, schedule: Q01DX005 (ip), vehicle: suspension in saline): 97 % of control

CC(=O)NC(CC(=O)O)C(=O)O (configuration not stated)
T/C (dose: 100.0 mg/kg/injection, schedule: Q01DX001 (ip), vehicle: saline): 106 % of control
T/C (dose: 200.0 mg/kg/injection, schedule: Q01DX001 (ip), vehicle: saline): 100 % of control
T/C (dose: 400.0 mg/kg/injection, schedule: Q01DX001 (ip), vehicle: saline): 97 % of control

COC(=O)c1cc2cnc1CSCc1cnc(c(C(=O)OC)c1)CSC2
T/C [1]: 96 % of control
T/C [2]: 96 % of control
T/C [3]: 96 % of control

Cc1nc2ncn(-c3ccccc3)c2c(=O)n1Cc1ccco1
T/C [15]: 103 % of control
T/C [16]: 103 % of control
T/C [21]: 95 % of control

COc1ccc(/C(=N/N)c2ccccc2)cc1
T/C (dose: 100.0 mg/kg/injection, schedule: Q04DX003 (ip), vehicle: Klucel (hydroxypropylcellulose) (HPC)): 100 % of control
T/C (dose: 200.0 mg/kg/injection, schedule: Q04DX003 (ip), vehicle: Klucel (hydroxypropylcellulose) (HPC)): 114 % of control

Cc1cccc(C(=O)C(CN(C)C)CN(C)C)c1
T/C (dose: 12.5 mg/kg/injection, schedule: Q01DX005 (ip), vehicle: saline): 112 % of control
T/C (dose: 25.0 mg/kg/injection, schedule: Q01DX005 (ip), vehicle: saline): 114 % of control

COc1ccccc1P(=S)(c1ccccc1)c1ccccc1
T/C [15]: 99 % of control
T/C [16]: 99 % of control
T/C [21]: 96 % of control

CCCCCCCCCC[N+]1([O-])CCCCCC1
T/C [12]: 100 % of control
T/C [13]: 106 % of control
T/C (dose: 50.0 mg/kg/injection, schedule: Q01DX009 (ip), vehicle: saline): 94 % of control

CN(C)CCNC(=O)c1ccc(C(=O)NCCN(C)C)c2c(C(=O)NCCN(C)C)ccc(C(=O)NCCN(C)C)c12
T/C (dose: 1.56 mg/kg/injection, schedule: Q01DX005 (ip), vehicle: saline with Tween-80): 100 % of control
T/C (dose: 3.13 mg/kg/injection, schedule: Q01DX005 (ip), vehicle: saline with Tween-80): 106 % of control
T/C [20]: 102 % of control and 109 % of control
T/C [7]: 108 % of control

O=C(O)CC(O)C(F)(F)C(F)(F)C(F)(F)F (configuration not stated)
T/C (dose: 18.75 mg/kg/injection, schedule: Q04DX003 (ip), vehicle: saline): 100 % of control
T/C (dose: 37.5 mg/kg/injection, schedule: Q04DX003 (ip), vehicle: saline): 95 % of control
T/C (dose: 75.0 mg/kg/injection, schedule: Q04DX003 (ip), vehicle: saline): 109 % of control

Nc1nc2c(C(=O)c3ccco3)nnn2c2cccc(Cl)c12
T/C [4]: 100 % of control
T/C [5]: 104 % of control
T/C [6]: 104 % of control
